“And” between values parts separate entries of the source, which are not always exact repeats. Identical values can stand only once. Toxic doses and inconclusive results are not listed.
Tested on: CD2F1 mice, L1210 leukemia ip, survival T/C
Experiment: NCI In Vivo Anticancer Drug Screen. Data for tumor model L1210 Leukemia (intraperitoneal) in CD2F1 (CDF1) mice
Conditions: higher = longer survival
Procedure, shortened: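 Read-out first: treated-group measurement over vehicle-control measurement, expressed as a ratio. Animals bore a transplanted tumor line and were dosed with compound or vehicle.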

[1] = endpoint: mean survival time, dose: 100.0 mg/kg/injection, schedule: Q04DX003 (ip), vehicle: saline with Tween-80
[2] = endpoint: mean survival time, dose: 200.0 mg/kg/injection, schedule: Q04DX003 (ip), vehicle: saline with Tween-80
[3] = endpoint: mean survival time, dose: 400.0 mg/kg/injection, schedule: Q04DX003 (ip), vehicle: saline with Tween-80

`CC[C@](O)(C(=O)O)c1cc2n(c(=O)c1CO)Cc1cc3ccccc3nc1-2` was tested, and the T/C (endpoint: mean survival time, dose: 1.0 mg/kg/injection, schedule: Q04DX003 (ip), vehicle: water) was 100 % of control, the T/C (endpoint: mean survival time, dose: 2.0 mg/kg/injection, schedule: Q04DX003 (ip), vehicle: water) was 107 % of control and the T/C (endpoint: mean survival time, dose: 4.0 mg/kg/injection, schedule: Q04DX003 (ip), vehicle: water) was 108 % of control. For the same compound, the T/C (endpoint: mean survival time, dose: 12.5 mg/kg/injection, schedule: Q04DX003 (ip), vehicle: water) was 159 % of control, the T/C (endpoint: mean survival time, dose: 16.0 mg/kg/injection, schedule: Q04DX003 (ip), vehicle: water) was 175 % of control and the T/C (endpoint: mean survival time, dose: 50.0 mg/kg/injection, schedule: Q04DX003 (ip), vehicle: water) was 113 % of control and 119 % of control. The T/C (endpoint: mean survival time, dose: 100.0 mg/kg/injection, schedule: Q04DX003 (ip), vehicle: water) was 93 % of control, the T/C (endpoint: median survival time, dose: 3.75 mg/kg/injection, schedule: Q04HX004 (iv), vehicle: water) was 115 % of control and the T/C (endpoint: median survival time, dose: 5.0 mg/kg/injection, schedule: Q04DX002 (ip), vehicle: water) was 117 % of control and 121 % of control and 123 % of control. The T/C (endpoint: median survival time, dose: 5.0 mg/kg/injection, schedule: Q04DX002 (iv), vehicle: water) was 115 % of control, the T/C (endpoint: median survival time, dose: 6.2 mg/kg/injection, schedule: Q04HX004 (iv), vehicle: water) was 167 % of control and the T/C (endpoint: median survival time, dose: 6.25 mg/kg/injection, schedule: Q04HX004 (iv), vehicle: saline) was 177 % of control. For the same compound, the T/C (endpoint: median survival time, dose: 6.25 mg/kg/injection, schedule: Q04HX004 (iv), vehicle: water) was 162 % of control and 178 % of control, the T/C (endpoint: median survival time, dose: 7.5 mg/kg/injection, schedule: Q04HX004 (iv), vehicle: other) was 170 % of control and the T/C (endpoint: median survival time, dose: 7.5 mg/kg/injection, schedule: Q04HX004 (iv), vehicle: water) was 166 % of control and 180 % of control. The T/C (endpoint: median survival time, dose: 12.5 mg/kg/injection, schedule: Q04DX003 (ip), vehicle: clinical formulation) was 178 % of control, the T/C (endpoint: median survival time, dose: 12.5 mg/kg/injection, schedule: Q04DX003 (ip), vehicle: saline) was 167 % of control and the T/C (endpoint: median survival time, dose: 12.5 mg/kg/injection, schedule: Q04HX004 (iv), vehicle: saline) was 160 % of control and 190 % of control. For the same compound, the T/C (endpoint: median survival time, dose: 12.5 mg/kg/injection, schedule: Q04HX004 (iv), vehicle: water) was 177 % of control and 193 % of control and 196 % of control, the T/C (endpoint: median survival time, dose: 15.0 mg/kg/injection, schedule: Q04HX004 (iv), vehicle: dextrose) was 195 % of control and the T/C (endpoint: median survival time, dose: 15.0 mg/kg/injection, schedule: Q04HX004 (iv), vehicle: other) was 192 % of control. For the same compound, the T/C (endpoint: median survival time, dose: 15.0 mg/kg/injection, schedule: Q04HX004 (iv), vehicle: water) was 200 % of control and 208 % of control, the T/C (endpoint: median survival time, dose: 20.0 mg/kg/injection, schedule: Q04DX002 (ip), vehicle: saline) was 151 % of control and 168 % of control (2×) and the T/C (endpoint: median survival time, dose: 25.0 mg/kg/injection, schedule: Q04DX002 (ip), vehicle: water) was 156 % of control and 195 % of control. The T/C (endpoint: median survival time, dose: 25.0 mg/kg/injection, schedule: Q04DX003 (ip), vehicle: clinical formulation) was 229 % of control, the T/C (endpoint: median survival time, dose: 25.0 mg/kg/injection, schedule: Q04DX003 (ip), vehicle: saline) was 218 % of control and the T/C (endpoint: median survival time, dose: 25.0 mg/kg/injection, schedule: Q04HX004 (iv), vehicle: saline) was 198 % of control and 226 % of control. For the same compound, the T/C (endpoint: median survival time, dose: 25.0 mg/kg/injection, schedule: Q04HX004 (iv), vehicle: water) was 206 % of control and 212 % of control and 230 % of control, the T/C (endpoint: median survival time, dose: 30.0 mg/kg/injection, schedule: Q04HX004 (iv), vehicle: dextrose) was 227 % of control and the T/C (endpoint: median survival time, dose: 30.0 mg/kg/injection, schedule: Q04HX004 (iv), vehicle: other) was 219 % of control. For the same compound, the T/C (endpoint: median survival time, dose: 30.0 mg/kg/injection, schedule: Q04HX004 (iv), vehicle: water) was 220 % of control and 227 % of control, the T/C (endpoint: median survival time, dose: 40.0 mg/kg/injection, schedule: Q04DX002 (ip), vehicle: saline) was 181 % of control and 185 % of control and 200 % of control and the T/C (endpoint: median survival time, dose: 40.0 mg/kg/injection, schedule: Q04DX002 (iv), vehicle: water) was 183 % of control. The T/C (endpoint: median survival time, dose: 40.0 mg/kg/injection, schedule: Q04HX004 (iv), vehicle: other) was 247 % of control, the T/C (endpoint: median survival time, dose: 40.0 mg/kg/injection, schedule: Q04HX004 (iv), vehicle: water) was 226 % of control and 253 % of control and the T/C (endpoint: median survival time, dose: 50.0 mg/kg/injection, schedule: Q04DX002 (ip), vehicle: water) was 173 % of control and 217 % of control. The T/C (endpoint: median survival time, dose: 50.0 mg/kg/injection, schedule: Q04DX003 (ip), vehicle: saline) was 263 % of control, the T/C (endpoint: median survival time, dose: 50.0 mg/kg/injection, schedule: Q04HX004 (iv), vehicle: saline) was 211 % of control and 256 % of control and the T/C (endpoint: median survival time, dose: 50.0 mg/kg/injection, schedule: Q04HX004 (iv), vehicle: water) was 225 % of control and 261 % of control and 101 % of control. The T/C (endpoint: median survival time, dose: 80.0 mg/kg/injection, schedule: Q04DX002 (ip), vehicle: saline) was 205 % of control and 216 % of control and 227 % of control, the T/C (endpoint: median survival time, dose: 80.0 mg/kg/injection, schedule: Q04DX002 (iv), vehicle: water) was 252 % of control and the T/C (endpoint: median survival time, dose: 100.0 mg/kg/injection, schedule: Q04DX002 (ip), vehicle: water) was 204 % of control and 233 % of control. For the same compound, the T/C (endpoint: median survival time, dose: 100.0 mg/kg/injection, schedule: Q04DX003 (ip), vehicle: saline) was 108 % of control.

For `O=C1COC(C(Cl)(Cl)Cl)CN1` (stereo unspecified), the T/C (endpoint: mean survival time, dose: 100.0 mg/kg/injection, schedule: Q01DX009 (ip), vehicle: saline with Tween-80) was 98 % of control, the T/C [1] was 102 % of control and the T/C (endpoint: mean survival time, dose: 200.0 mg/kg/injection, schedule: Q01DX009 (ip), vehicle: saline with Tween-80) was 95 % of control. For the same compound, the T/C [2] was 100 % of control, the T/C (endpoint: mean survival time, dose: 400.0 mg/kg/injection, schedule: Q01DX009 (ip), vehicle: saline with Tween-80) was 102 % of control and the T/C [3] was 104 % of control.

In the case of `NC(=O)C(CCCCC(C(N)=O)C(N)=O)C(N)=O`, the T/C (endpoint: mean survival time, dose: 100.0 mg/kg/injection, schedule: Q04DX002 (ip), vehicle: saline with Tween-80) was 96 % of control, the T/C (endpoint: mean survival time, dose: 200.0 mg/kg/injection, schedule: Q04DX002 (ip), vehicle: saline with Tween-80) was 108 % of control and the T/C (endpoint: mean survival time, dose: 400.0 mg/kg/injection, schedule: Q04DX002 (ip), vehicle: saline with Tween-80) was 108 % of control.

With `CC(C(=O)NN)C(O)C(C)(C)O` (stereo unspecified) the T/C [1] was 96 % of control, the T/C [2] was 96 % of control and the T/C [3] was 103 % of control.

`CC(C)=CCC/C(C)=C/CN` was tested, and the T/C (endpoint: mean survival time, dose: 25.0 mg/kg/injection, schedule: Q01DX009 (ip), vehicle: saline) was 98 % of control and the T/C (endpoint: mean survival time, dose: 100.0 mg/kg/injection, schedule: Q04DX003 (ip), vehicle: saline) was 86 % of control.

`COC(=O)c1ccc(OC)c2nc3c(C=O)c(OC)cc(OC)c3nc12` was tested, and the T/C (endpoint: mean survival time, dose: 5.3 mg/kg/injection, schedule: Q01DX009 (ip), vehicle: saline with Tween-80) was 94 % of control, the T/C (endpoint: mean survival time, dose: 8.0 mg/kg/injection, schedule: Q01DX009 (ip), vehicle: saline with Tween-80) was 92 % of control and the T/C (endpoint: mean survival time, dose: 12.0 mg/kg/injection, schedule: Q01DX009 (ip), vehicle: saline with Tween-80) was 94 % of control. For the same compound, the T/C (endpoint: mean survival time, dose: 18.0 mg/kg/injection, schedule: Q01DX009 (ip), vehicle: saline with Tween-80) was 97 % of control.
